What was measured:
RAD51 S181C = experiment: RAD51–TR2 disulphide cross-linking, SDS-PAGE; set-up: species or system human; conditions: RAD51 S181C 10 μM, 0.5 μM ssDNA, 1.25 μM Cy3-TR2, 2 mM hydrogen peroxide 5 min; pH 7.5; non-reducing SDS-PAGE; repeated three times
Source text: To further validate our model of the RAD51–TR2 interaction, we mutated RAD51 S181 to a cysteine to enable disulphide formation with TR2 C3304, which would support its presence at the TR2-RAD51 interface, as identified in the structure.
Fig. 5 Structure-guided BRCA2 TR2 cross-linking to RAD51. A Drawing of the RAD51–TR2 interface, highlighting that amino acids BRCA2 C3304 and RAD51 S181 are spatially close, so that the RAD51 S181C mutant can form a disulphide bridge with C3304 in the TR2 peptide. B SDS-PAGE analysis of cross-linking reactions between RAD51 S181C and TR2 in the presence of hydrogen peroxide. Wild-type RAD51 and the reducing agent DTT were used as controls. Protein bands were visualised with Coomassie Blue. C Same experiment as in B, visualised with 532 nm excitation of the Cy3-labelled TR2 peptide. Experiment was repeated three times. Source data are provided as a Source Data file.
Cross-linking reactions were prepared in buffer: 25 mM HEPES pH 7.5, 150 mM NaCl, 2 mM ATP, 5 mM CaCl2, supplemented with 0.5 μM ssDNA. WT or S181C RAD51 was added to a final concentration of 10 μM and incubated for 15 minutes at room temperature. […] Each crosslinked sample was analysed by SDS-PAGE, using gel-loading dye with DTT (reducing) or without DTT (non-reducing), on a 12% Bis-Tris SDS-PAGE gel. […]

[1] = test system: RAD51 NPFs on DNA capped at both ends with mSA; experiment: EMSA of TR2 binding to RAD51 NPFs on mSA-capped DNA; set-up: species or system human; conditions: doubly-biotinylated ss- and dsDNA, mSA in 5× molar excess of biotin labels; SYBR Gold; two independent repeats
Source text: To understand the structural basis for the association of the BRCA2 C-terminus with the RAD51 nucleoprotein filament, we sought to determine the structure of a RAD51-DNA-TR2 filament by high-resolution cryo-electron microscopy (cryoEM). […] Individual filaments within a bundle appeared to be in translational register relative to each other as it was possible to obtain well-resolved 2D classes of filament pairs (Supplementary fig. 5A, Supplementary Table 1). Filament aggregation induced by TR2 complicated picking of individual filament particles and prevented structural determination by cryoEM. We therefore sought to develop a method to prepare RAD51 NPFs in the presence of TR2 peptide without causing filament bundling. We reasoned that bundling might be alleviated by capping the DNA substrate with a bulky tag, to prevent filament aggregation by steric interference. We therefore prepared ss- and dsDNA substrates with a biotin tag at either one end or both ends, that could be bound by monomeric streptavidin (mSA) (Supplementary Fig. 5B, Supplementary Table 1).
Fig. 2 BRCA2 TR2 induces bundling of RAD51 nucleoprotein filaments. […]
Before electrophoresis, samples were mixed with a 0.5:1 volume of 50% (w/v) sucrose solution and analysed on a pre-run 0.5% (w/v) agarose gel in 0.5× TB buffer at 35 V for 2.5 hours at 4 °C. […]

Sequence: DDQKNCKKRRALDFLSRLPLPPPVSPICTFVSPAAQKAFQPPRSCGTKY [TR2, BRCA2 TR2 peptide spanning amino acids 3260 to 3308]
- formation of crosslinked RAD51–TR2 species (RAD51 S181C): readily detect formation of a crosslinked RAD51–TR2 species
- TR2 binding by RAD51 NPFs on mSA-capped DNA [1]: competent to bind the TR2 peptide
